Source: patent publication US20040092456A1, “Methods for identifying glucose uptake modulators” (priority 2002, published 2004)

Legend:
Format in all cases: cell-based, mouse
EDL muscles [1] = assay: Insulin-mediated 2-deoxyglucose (2-DG) uptake in isolated EDL muscles; conditions: insulin 10 milliunits ml^−1
Text: (§1) Adult male mice (NMRI strain) were housed at room temperature and fed ad libitum. Animals were killed by rapid neck disarticulation and muscles removed. Extensor digitorum longus (EDL; mainly fast-twitch fibers)) and soleus (mainly slow-twitch fibers) muscles were used for measurements of 2-deoxyglucose (2-DG) uptake. Flexor digitorum brevis (FDB, mainly fast-twitch fibers) muscles were used in single fiber experiments. All procedures were approved by the local ethics committee.
(§2) 2-DG uptake was measured essentially as described elsewhere (Shashkin et al. (1995) J Biol Chem 270:25613-25618; Le Marchand-Brustel et al. (1979) J Clin Invest 64:1505-1515). Briefly, muscles were incubated at 35° C. in Krebs bicarbonate buffer containing 2 mmol 1^−1 pyruvate (no glucose) ±an antagonist of SMCE, either 2-APB, a relatively specific inhibitor of SMCE that appears to act directly on SMCE channels (Braun et al. (2001) J Biol Chem 276:1063-1070; Broad et al. (2001) J Biol Chem 276:15945-15952), or MDL, another inhibitor of SMCE with different modes of action as compared to 2-APB (van Rossum et al. (2000) J Biol Chem 275:28562-28568). In other experiments muscles were incubated in 2,5-di(tert-butyl)-1,4-benzohydroquinone (TBQ), an inhibitor of SR Ca^2+ uptake (Westerblad et al. (1994) J Physiol 474:291-301). In some experiments insulin was added (10 milliunits ml^−1) after the initial 30 min incubation period. After an additional 30 min, 2-DG (1 mmol 1^−1; 1 mCi mmol^−1) and inulin (0.2 μCi per ml medium) were added. Muscles were blotted and frozen in liquid nitrogen 20 min after addition of 2-DG. Muscles were then weighed, digested in NaOH at 70° C., cooled and centrifuged, and aliquots of the supernatants were added to scintillation cocktail and counted for ^3H (2-DG) and ^14C (inulin).
In some experiments on EDL muscles, 2-DG glucose uptake was measured after 2-APB removal in the continued presence of insulin. After the initial 30 min incubation period, insulin (10 milliunits ml^−1) was added and remained in the solution for the rest of the experiment. After an additional 30 min, 2-APB (100 μM) was added. […] Control muscles were treated in the same way except that 2-APB was never added.

soleus muscles [2] = assay: Insulin-mediated 2-deoxyglucose (2-DG) uptake in isolated soleus muscles; conditions: insulin 10 milliunits ml^−1
Text: as §1, §2

EDL muscles [3] = assay: Basal 2-DG uptake (no insulin) in isolated EDL muscles; conditions: for Basal rate of 2-DG uptake, EDL: 2-APB 0.1 mmol 1^−1, MDL 300 μmol 1^−1, TBQ 500 nmol 1^−1, mean ± SEM (n)
Text: as §1, §2

soleus muscles [4] = assay: Basal 2-DG uptake (no insulin) in isolated soleus muscles; conditions: for Basal rate of 2-DG uptake, Soleus: MDL 300 μmol 1^−1, TBQ 500 nmol 1^−1, mean ± SEM (n)
Text: as §1, §2

skeletal muscle = assay: Contractile function (tetanic force, relaxation) during drug exposure
Method: To ensure that this inhibition was not caused by a generalized, unspecific inhibitory effect of the drug, contractile function was tested during exposure to 2-APB.

[5] = system: store-mediated Ca^2+ entry (SMCE); assay: Rate of Mn2+ quenching of fura-2 fluorescence in single FDB muscle fibers (indirect measure of SMCE)
Text: as §1
(§3) Experiments on single FDB muscle fibers were performed at 24° C. The isolated fiber was mounted in a stimulation chamber and continuously superfused by standard Tyrode solution (Lännergren et al. (1987) J Physiol 390:285-293). The free myoplasmic [Ca^2+] ([Ca^2+]i) was measured with the fluorescent Ca^2+ indicator indo-1 (Andrade et al. (1998) J Physiol 509:565-575). An indirect measure of SMCE was obtained by measuring the rate of Mn^2+ entry and quenching of the fluorescence intensity of fura-2 (Hopfet al. (1996) J Biol Chem 271:22358-22367). MnCl2 (100 μmol 1^−1) was added to the bath solution and the fura-2 injected muscle fiber was excited at 360±5 nm (the isosbestic wavelength of fiira-2 under our experimental conditions) while measuring the fluorescence light emitted at 495±5 nm. The rate of Mn^2+ quenching was measured during periods where the rate of decrease of the fluorescent light was stable, i.e. ignoring transient changes induced by changes of the bath solution. Measurements were not performed until 2 min after application of insulin, thus allowing time for insulin to act.

single FDB muscle fibers = assay: Free myoplasmic [Ca2+]i measured with indo-1 in single FDB muscle fibers; conditions: global [Ca^2+]i, 75±13 before, n=4
Text: as §1
as §3, with “The isolated fiber was mounted in a stimulation chamber and continuously superfused by standard Tyrode solution (Lännergren et al. (1987) J Physiol 390:285-293). The free myoplasmic [Ca^2+]” left out, “Measurements were not performed until 2 min after application of insulin, thus allowing time for insulin to act.” left out

Row | Molecule | Effect on insulin-mediated 2-DG uptake, EDL (in words) (EDL muscles [1]) | Effect on insulin-mediated 2-DG uptake, soleus (in words) (soleus muscles [2]) | Effect on basal 2-DG uptake, EDL (in words) (EDL muscles [3]) | Basal rate of 2-DG uptake, EDL (EDL muscles [3]) | Effect on basal 2-DG uptake, soleus (in words) (soleus muscles [4]) | Basal rate of 2-DG uptake, Soleus (soleus muscles [4]) | Reversibility of the force reduction on washout (skeletal muscle; 100 μmol 1^−1 MDL) | Reduction of tetanic force (skeletal muscle; 100 μmol 1^−1 MDL, 30 min of exposure, n=4) | Insulin-mediated 2-DG uptake, EDL (EDL muscles [1]; 100 nmol 1^−1 TBQ, n=6) | Insulin-mediated 2-DG uptake, EDL (EDL muscles [1]; 500 nmol 1^−1 TBQ, n=4) | Insulin-mediated 2-DG uptake, soleus (soleus muscles [2]; 100 nmol 1^−1 TBQ, n=6) | Insulin-mediated 2-DG uptake, soleus (soleus muscles [2]; 500 nmol 1^−1 TBQ, n=4) | Increase of tetanic force (skeletal muscle; 2-APB 100 μmol 1^−1, 30 min (n=5), TBQ 500 nmol 1^−1 (n=4)) | Relaxation speed (in words) (skeletal muscle; 2-APB 100 μmol 1^−1, 30 min, TBQ 500 nmol 1^−1) | Increase in the rate of Mn^2+ quenching on addition of insulin ([5]; 0 mmol 1^−1 glucose, n=5) | Insulin-induced change of the rate of Mn^2+ quenching (in words) ([5]; 5.5 mmol 1^−1 glucose, mean data, n=6) | Recovery of the 2-APB-induced decrease of quenching rate by insulin ([5]; insulin 10 mU ml^−1 in continued presence of 2-APB 100 μmol 1^−1) | [Ca^2+]i after application of insulin (single FDB muscle fibers)
1 | c1ccc([C@H]2CCC[C@H]2NC2=NCCCCCCCCCCC2)cc1 (relative stereo) [MDL, cis-N-(2-phenylcyclopentyl)azacyclotridec-1-en-2-amine] | decreased insulin-mediated 2-DG uptake in a dose-dependent manner | decreased insulin-mediated 2-DG uptake in a dose-dependent manner | not significantly affected | 42 ± 3 (4) μmol 1^−1 min^−1 | not significantly affected | 42 ± 4 (4) μmol 1^−1 min^−1 | not reversed on washout | 22±2% |  |  |  |  |  |  |  |  |  | 
2 | CC(C)(C)c1cc(O)c(C(C)(C)C)cc1O [TBQ, 2,5-di(tert-butyl)-1,4-benzohydroquinone] | no effect | no effect | no significant effect | 37 ± 6 (4) μmol 1^−1 min^−1 | no significant effect | 63 ± 5 (4) μmol 1^−1 min^−1 |  |  | 93±5 μmol 1^−1 min^−1 | 103±4 μmol 1^−1 min^−1 | 150±7 μmol 1^−1 min^−1 | 179±8 μmol 1^−1 min^−1 | 4±2% | slight slowing of relaxation |  |  |  | 
3 | insulin |  |  |  |  |  |  |  |  |  |  |  |  |  |  | about 10% | no significant insulin-induced change | about half | 74±13 nmol 1^−1
